# Laboratory results: ChEMBL document CHEMBL1201862, “PubChem BioAssay data set” (2004)
# Active and inactive are the calls of the source.
# Experiments:
# [1] = viability loss in Vero cells – cytotoxicity control for Vif-APOBEC3G degradation inhibitor project, dose response (AID 1117358); type: functional; settings: Vero
# Bcl-2-related protein A1 [2] = molecular target: T1, Bcl-2-related protein A1 (Mus musculus, UniProt Q07440); test: Bfl-1 binding inhibitors, SAR follow-up, biochemical, fluorescence polarization (AID 1070)
# T1 sequence (Q07440 whole entry): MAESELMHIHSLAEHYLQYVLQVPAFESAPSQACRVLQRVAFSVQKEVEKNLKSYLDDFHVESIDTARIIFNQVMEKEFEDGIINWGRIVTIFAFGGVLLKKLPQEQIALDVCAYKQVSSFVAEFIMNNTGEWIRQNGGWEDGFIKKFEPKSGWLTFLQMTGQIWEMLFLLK
# [3] = molecular target: Glyceraldehyde-3-phosphate dehydrogenase (Homo sapiens, UniProt P04406)
# Bcl-2-related protein A1 [4] = molecular target: T1, Bcl-2-related protein A1; test: small-molecule antagonists of Bfl-1/BH3 interaction – biochemical, TR-FRET, mouse Bfl-1, confirmation (AID 621);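 note: TR-FRET binding of GST-Bfl-1 to FITC-labelled Bid peptide via terbium antibody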
# [5] = molecular target: Transitional endoplasmic reticulum ATPase (Homo sapiens, UniProt P55072, C522A); test: Luminescence counterscreen assay for p97 inhibitors: dose response biochemical high throughput screening assay to identify inhibitors of the C522A mutant p97 ATPase: synthesized compounds. [Related pubchem assays: 1481, 1517, 1551 ]
# [6] = molecular target: Transitional endoplasmic reticulum ATPase (Homo sapiens, UniProt P55072); test: Luminescence dose response biochemical high throughput screening assay for inhibitors of the p97 ATPase: synthesized compounds. [Related pubchem assays: 1481, 1517 ]
# Phospholipase D2 = Phospholipase D2 (Homo sapiens, UniProt O14939); test: PLD2 Cellular Concentration Response Study.; type: functional
# Phospholipase D1 = molecular target: T2, Phospholipase D1 (Homo sapiens, UniProt Q13393); test: PLD1 Cellular Concentration Response Study.; type: functional
# T2 sequence (Q13393 whole entry): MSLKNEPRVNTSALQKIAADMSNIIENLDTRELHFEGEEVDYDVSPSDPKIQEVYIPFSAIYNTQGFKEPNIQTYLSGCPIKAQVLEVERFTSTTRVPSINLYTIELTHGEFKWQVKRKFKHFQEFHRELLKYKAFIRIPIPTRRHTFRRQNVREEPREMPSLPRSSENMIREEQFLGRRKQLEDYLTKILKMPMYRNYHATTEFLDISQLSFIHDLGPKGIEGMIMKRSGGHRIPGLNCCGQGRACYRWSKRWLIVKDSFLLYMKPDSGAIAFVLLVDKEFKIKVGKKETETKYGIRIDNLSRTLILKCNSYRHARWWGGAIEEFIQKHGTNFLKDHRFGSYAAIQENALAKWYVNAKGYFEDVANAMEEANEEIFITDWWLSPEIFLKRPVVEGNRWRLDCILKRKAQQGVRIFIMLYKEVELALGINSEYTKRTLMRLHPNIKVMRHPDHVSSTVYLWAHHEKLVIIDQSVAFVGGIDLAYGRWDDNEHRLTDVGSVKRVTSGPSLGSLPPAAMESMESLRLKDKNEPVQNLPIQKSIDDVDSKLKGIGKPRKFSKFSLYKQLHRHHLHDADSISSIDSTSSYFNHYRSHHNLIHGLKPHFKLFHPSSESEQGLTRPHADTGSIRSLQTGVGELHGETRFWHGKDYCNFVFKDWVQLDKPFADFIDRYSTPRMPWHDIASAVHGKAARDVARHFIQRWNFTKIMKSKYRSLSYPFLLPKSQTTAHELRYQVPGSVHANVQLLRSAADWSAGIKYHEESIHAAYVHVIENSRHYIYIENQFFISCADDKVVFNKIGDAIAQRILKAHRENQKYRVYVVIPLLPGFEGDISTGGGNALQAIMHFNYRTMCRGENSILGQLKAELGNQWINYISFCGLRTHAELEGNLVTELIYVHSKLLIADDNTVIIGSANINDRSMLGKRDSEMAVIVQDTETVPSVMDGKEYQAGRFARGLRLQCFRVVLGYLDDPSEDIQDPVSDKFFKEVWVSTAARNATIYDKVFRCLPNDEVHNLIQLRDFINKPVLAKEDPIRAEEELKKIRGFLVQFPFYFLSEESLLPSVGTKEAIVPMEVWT
# [7] = Luminescence Cell-Based Dose Confirmation HTS to Identify Inhibitors of Platelet Dense Granule Release. [Related pubchem assays: 1663 (Primary HTS), 1678 (Summary of Project)]; type: functional
# Ephrin type-A receptor 4 = Ephrin type-A receptor 4 (Mus musculus, UniProt Q03137); test: EphA4 ligand-binding antagonists – biochemical, colorimetric, mouse EphA4, primary screen (AID 689); type: functional
# [8] = molecular target: Luciferin 4-monooxygenase (Photinus pyralis, UniProt P08659); test: inhibition of purified Photinus pyralis luciferase – biochemical, luminescence, dose response (AID 1891)
# Streptococcus = test: GAS UMAA2166 growth inhibition – luminescence, BacTiterGlo, counter-screen for streptokinase expression inhibitor project, dose response (AID 1915); type: functional, organism-based;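 note: potency for reduction of bacterial viability or growth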
# Streptokinase A = molecular target: T3, Streptokinase A (Streptococcus pyogenes serotype M1, UniProt P10520); test: viability-normalized secreted streptokinase activity reduction – plasminogen activation absorbance, OD405, dose response (AID 1914); type: functional, Streptococcus pyogenes M1 GAS;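 note: secreted streptokinase activity via plasminogen activation per viability signal from cell pellet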
# T3 sequence (P10520 whole entry): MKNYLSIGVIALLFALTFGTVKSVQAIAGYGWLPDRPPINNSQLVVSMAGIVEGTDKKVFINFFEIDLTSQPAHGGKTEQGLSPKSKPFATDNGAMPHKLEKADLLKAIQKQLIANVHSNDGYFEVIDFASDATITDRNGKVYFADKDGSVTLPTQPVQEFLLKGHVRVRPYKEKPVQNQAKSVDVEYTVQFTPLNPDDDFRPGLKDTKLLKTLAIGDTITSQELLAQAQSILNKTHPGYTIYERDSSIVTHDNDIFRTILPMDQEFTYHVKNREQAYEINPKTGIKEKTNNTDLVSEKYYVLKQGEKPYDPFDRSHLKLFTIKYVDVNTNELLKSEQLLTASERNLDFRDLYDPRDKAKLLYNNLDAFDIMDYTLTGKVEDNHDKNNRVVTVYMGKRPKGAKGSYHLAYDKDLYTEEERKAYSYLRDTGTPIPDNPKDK
# [9] = tested on: Streptococcus sp. 'group A'; test: Streptococcus pyogenes SK(-)GAS viability under kanamycin – luminescence, BacTiterGlo, confirmation, counter-screen for streptokinase expression inhibitor project, dose response (AID 1900); type: functional, organism-based
# [10] = molecular target: Aryl hydrocarbon receptor (Homo sapiens, UniProt P35869); test: Luminescence-based cell-based high throughput dose response assay for activators of the Aryl Hydrocarbon Receptor (AHR). [Related pubchem assays: 2796 (Primary screen (AHR activators in singlicate)), 2845 (Confirmation screen (AHR activators in triplicate)), 434939 (Counterscreen (PXR activators in triplicate)), 2804 (Summary (AHR activators))]; type: ADME
# NADPH oxidase 1 = NADPH oxidase 1 (Homo sapiens, UniProt Q9Y5S8); test: Late-stage luminescence-based cell-based dose response assay to identify inhibitors of NADPH oxidase 1 (NOX1): Synthesized analogs 3.; type: functional
# [11] = molecular target: Signal transducer and activator of transcription 1-alpha/beta (Homo sapiens, UniProt P42224); test: inhibition of STAT1 reporter activity – cell-based, NIH 3T3, luciferase reporter, dose response (AID 1396); type: functional
# [12] = molecular target: Voltage-gated inwardly rectifying potassium channel KCNH2 (Homo sapiens, UniProt Q12809); test: concentration-dependent hERG rescue from blockers – cell-based, thallium flux, dose response (AID 2121); type: ADME
# cells = settings: HEK293
# Vero = test: Vero cell viability after compound exposure – synthesized analogs, set II, cytotoxicity control for West Nile virus antiviral project, SAR follow-up (AID 2402); type: functional; settings: Chlorocebus sabaeus
# [13] = molecular target: Metabotropic glutamate receptor 7 (Homo sapiens, UniProt Q14831); test: potentiation of glutamate EC20 at mGlu7 – cell-based, calcium mobilization, Galpha15, dose response (AID 743384); type: functional
# [14] = molecular target: T4, Zinc finger protein mex-5 (Caenorhabditis elegans, UniProt Q9XUB2); test: potency of MEX-5 RNA-binding blockers – biochemical, C. elegans, fluorescence polarization, dose response (AID 1960)
# T4 sequence (Q9XUB2 whole entry): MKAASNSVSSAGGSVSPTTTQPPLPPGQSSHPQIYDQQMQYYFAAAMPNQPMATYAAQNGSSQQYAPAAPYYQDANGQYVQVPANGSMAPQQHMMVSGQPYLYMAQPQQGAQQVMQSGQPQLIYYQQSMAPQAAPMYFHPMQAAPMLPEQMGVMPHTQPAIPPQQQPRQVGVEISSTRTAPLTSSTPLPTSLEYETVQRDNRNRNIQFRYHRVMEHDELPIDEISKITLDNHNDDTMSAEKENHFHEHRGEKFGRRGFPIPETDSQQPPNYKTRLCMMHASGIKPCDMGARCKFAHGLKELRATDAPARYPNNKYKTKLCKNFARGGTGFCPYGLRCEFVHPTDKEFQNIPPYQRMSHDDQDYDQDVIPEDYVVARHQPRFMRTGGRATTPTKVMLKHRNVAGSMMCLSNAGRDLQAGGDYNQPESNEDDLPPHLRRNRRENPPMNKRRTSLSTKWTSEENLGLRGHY
# [15] = molecular target: T5, RNA-binding protein pos-1 (Caenorhabditis elegans, UniProt G5EF15); test: disruptors of C. elegans POS-1 RNA interaction – biochemical, fluorescence polarization, dose response (AID 1964);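 note: purified POS-1 fused to maltose binding protein made in E. coli; potency of compounds blocking POS-1 binding to fluorescent RNA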
# T5 sequence (G5EF15 whole entry): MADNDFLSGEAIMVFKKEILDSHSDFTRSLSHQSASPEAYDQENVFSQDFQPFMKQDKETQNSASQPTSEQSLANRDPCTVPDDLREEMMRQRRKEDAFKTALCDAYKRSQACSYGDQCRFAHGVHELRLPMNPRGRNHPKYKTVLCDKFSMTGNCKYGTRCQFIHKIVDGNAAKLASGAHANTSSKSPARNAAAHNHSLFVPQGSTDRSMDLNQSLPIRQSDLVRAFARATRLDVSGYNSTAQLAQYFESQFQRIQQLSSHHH
# Bcl-2-related protein A1 [16] = molecular target: T1, Bcl-2-related protein A1; test: displacement of Bid BH3 peptide from Bfl-1 – biochemical, fluorescence polarization, FITC-Bid, mouse, primary screen (AID 432)
# [17] = molecular target: Photoreceptor-specific nuclear receptor (Homo sapiens, UniProt Q9Y5X4); type: functional, cell-based;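 note: CHO-S cells with Gal4-NCOR and VP16-NR2E3 two-hybrid luciferase reporter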
# [18] = Counterscreen for activators of the function of SWI/SNF related, matrix associated, actin dependent regulator of chromatin, subfamily a, member 2 (SMARCA2, BRM): Luminescence-based cell-based high throughput dose response assay to identify non-selective compounds using the VP16 reporter assay.; type: functional
# Cytochrome P450 2C9 = Cytochrome P450 2C9 (Homo sapiens, UniProt P11712)
# [19] = molecular target: SWI/SNF-related matrix-associated actin-dependent regulator of chromatin subfamily A member 2 (Homo sapiens, UniProt P51531); test: Luminescence-based cell-based high throughput dose response assay to identify activators of the function of SWI/SNF related, matrix associated, actin dependent regulator of chromatin, subfamily a, member 2 (SMARCA2, BRM).; type: functional
# [20] = Luminescence-based cell-based high throughput dose response assay to identify activators of the DAF-12 from the parasite S. stercoralis (ssDAF-12).; type: functional
# Transthyretin = Transthyretin (Homo sapiens, UniProt P02766); test: Luminescence-based cell-based high throughput dose response assay to identify activators of Transthyretin (TTR) transcription.; type: functional
# [21] = molecular target: RNA-editing ligase 1, mitochondrial (Trypanosoma brucei brucei, UniProt P86926); test: inhibition of trypanosome RNA editing ligase – biochemical, fluorescence, Trypanosoma brucei, dose response (AID 1117295); type: functional
# SWI/SNF-related matrix-associated actin-dependent regulator of chromatin subfamily A member 2, sequence (P51531 whole entry): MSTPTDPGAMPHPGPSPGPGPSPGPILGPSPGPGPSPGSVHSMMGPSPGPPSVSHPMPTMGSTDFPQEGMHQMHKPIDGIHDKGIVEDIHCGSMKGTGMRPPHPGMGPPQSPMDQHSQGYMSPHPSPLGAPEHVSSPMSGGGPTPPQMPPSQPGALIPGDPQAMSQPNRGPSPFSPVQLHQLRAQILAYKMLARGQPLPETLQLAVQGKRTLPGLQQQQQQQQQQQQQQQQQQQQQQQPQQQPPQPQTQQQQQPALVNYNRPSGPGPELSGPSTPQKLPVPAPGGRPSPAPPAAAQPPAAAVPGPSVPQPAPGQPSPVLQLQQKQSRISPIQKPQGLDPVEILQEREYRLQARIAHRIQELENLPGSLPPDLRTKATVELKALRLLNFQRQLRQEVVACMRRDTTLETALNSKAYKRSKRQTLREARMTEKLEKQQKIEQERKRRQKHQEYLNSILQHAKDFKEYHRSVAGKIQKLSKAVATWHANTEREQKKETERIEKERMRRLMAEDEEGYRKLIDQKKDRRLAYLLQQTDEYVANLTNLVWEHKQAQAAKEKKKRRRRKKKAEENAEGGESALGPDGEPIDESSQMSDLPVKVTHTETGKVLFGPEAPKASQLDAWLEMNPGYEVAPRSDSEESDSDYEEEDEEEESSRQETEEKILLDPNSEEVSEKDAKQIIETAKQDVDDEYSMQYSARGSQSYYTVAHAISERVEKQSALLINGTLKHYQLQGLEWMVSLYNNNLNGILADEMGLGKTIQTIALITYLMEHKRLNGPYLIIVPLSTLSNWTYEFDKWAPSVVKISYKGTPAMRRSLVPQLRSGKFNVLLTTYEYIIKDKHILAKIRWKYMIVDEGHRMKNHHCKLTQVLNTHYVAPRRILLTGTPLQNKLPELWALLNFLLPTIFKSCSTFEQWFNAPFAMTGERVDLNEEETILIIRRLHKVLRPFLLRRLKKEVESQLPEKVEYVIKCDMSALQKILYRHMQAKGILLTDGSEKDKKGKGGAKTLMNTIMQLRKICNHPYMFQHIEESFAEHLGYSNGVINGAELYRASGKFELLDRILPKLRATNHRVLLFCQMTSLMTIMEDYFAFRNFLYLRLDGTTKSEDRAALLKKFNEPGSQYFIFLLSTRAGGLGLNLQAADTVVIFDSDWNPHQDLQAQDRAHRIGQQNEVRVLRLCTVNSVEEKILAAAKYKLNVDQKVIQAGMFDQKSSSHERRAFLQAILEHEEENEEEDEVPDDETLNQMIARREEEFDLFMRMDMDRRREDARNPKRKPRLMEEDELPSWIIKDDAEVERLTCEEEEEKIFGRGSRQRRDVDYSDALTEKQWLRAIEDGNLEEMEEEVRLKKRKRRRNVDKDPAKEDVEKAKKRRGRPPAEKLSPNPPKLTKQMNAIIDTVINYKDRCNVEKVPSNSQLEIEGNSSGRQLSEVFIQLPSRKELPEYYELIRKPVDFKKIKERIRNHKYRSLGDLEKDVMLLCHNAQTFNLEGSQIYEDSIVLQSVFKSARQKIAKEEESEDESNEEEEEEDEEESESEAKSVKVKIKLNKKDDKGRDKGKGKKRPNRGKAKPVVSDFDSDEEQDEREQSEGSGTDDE
# Transitional endoplasmic reticulum ATPase (Homo sapiens, UniProt P55072, C522A), sequence (P55072 2-806 C522A limits assumed): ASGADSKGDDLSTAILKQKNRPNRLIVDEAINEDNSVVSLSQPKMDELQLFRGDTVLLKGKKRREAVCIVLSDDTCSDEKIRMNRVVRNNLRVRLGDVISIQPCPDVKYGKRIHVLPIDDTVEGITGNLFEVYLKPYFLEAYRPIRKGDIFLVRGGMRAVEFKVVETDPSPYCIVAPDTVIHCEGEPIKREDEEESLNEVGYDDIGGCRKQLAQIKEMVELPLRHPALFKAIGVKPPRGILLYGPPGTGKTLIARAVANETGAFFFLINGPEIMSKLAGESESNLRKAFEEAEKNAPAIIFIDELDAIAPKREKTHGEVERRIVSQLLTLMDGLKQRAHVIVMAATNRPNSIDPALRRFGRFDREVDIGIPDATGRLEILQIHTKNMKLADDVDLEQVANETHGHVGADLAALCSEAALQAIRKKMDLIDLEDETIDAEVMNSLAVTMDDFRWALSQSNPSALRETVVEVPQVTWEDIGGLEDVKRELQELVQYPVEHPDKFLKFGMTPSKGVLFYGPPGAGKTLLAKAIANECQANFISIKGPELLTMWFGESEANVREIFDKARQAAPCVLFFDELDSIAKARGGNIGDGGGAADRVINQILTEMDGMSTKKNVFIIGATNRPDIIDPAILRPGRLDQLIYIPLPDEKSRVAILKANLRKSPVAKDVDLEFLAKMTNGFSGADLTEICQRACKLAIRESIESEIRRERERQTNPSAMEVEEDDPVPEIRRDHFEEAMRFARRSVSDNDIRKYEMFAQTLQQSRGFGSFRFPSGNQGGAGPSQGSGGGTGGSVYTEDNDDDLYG
# Luciferin 4-monooxygenase, sequence (P08659 whole entry): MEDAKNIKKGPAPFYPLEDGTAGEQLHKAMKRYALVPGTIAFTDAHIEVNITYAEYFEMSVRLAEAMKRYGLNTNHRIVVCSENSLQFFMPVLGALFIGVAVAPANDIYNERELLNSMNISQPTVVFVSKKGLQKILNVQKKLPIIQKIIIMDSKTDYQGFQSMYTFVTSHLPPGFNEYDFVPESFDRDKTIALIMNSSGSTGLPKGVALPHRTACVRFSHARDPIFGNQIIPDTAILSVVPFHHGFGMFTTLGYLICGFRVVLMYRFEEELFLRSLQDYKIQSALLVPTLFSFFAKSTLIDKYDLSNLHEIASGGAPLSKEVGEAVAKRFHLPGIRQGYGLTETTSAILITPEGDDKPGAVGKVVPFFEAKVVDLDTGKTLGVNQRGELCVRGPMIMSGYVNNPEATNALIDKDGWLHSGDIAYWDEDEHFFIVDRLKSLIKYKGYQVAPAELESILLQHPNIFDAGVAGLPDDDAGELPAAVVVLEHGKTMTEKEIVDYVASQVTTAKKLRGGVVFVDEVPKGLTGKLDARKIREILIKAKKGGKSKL
# Aryl hydrocarbon receptor, sequence (P35869 whole entry): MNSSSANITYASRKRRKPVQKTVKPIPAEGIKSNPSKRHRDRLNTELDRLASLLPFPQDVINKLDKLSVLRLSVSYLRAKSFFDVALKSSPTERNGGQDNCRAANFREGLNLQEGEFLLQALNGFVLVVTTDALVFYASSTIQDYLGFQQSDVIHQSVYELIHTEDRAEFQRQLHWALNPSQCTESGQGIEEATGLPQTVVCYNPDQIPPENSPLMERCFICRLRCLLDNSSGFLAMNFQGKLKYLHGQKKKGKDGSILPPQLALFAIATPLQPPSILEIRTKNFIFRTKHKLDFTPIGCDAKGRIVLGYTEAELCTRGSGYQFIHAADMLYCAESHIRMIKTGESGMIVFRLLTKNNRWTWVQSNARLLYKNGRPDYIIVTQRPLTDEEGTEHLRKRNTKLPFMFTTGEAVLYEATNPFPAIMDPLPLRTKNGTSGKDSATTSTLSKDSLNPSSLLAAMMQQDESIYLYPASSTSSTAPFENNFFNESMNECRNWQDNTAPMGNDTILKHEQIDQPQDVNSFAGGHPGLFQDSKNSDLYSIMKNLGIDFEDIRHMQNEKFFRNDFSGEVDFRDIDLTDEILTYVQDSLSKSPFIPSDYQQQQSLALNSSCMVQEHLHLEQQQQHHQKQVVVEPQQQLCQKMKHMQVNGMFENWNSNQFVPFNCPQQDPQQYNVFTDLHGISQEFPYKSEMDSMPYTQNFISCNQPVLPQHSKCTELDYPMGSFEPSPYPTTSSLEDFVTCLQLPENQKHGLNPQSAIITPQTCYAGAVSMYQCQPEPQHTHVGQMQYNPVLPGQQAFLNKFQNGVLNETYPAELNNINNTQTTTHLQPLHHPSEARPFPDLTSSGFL
# Phospholipase D2, sequence (O14939 whole entry): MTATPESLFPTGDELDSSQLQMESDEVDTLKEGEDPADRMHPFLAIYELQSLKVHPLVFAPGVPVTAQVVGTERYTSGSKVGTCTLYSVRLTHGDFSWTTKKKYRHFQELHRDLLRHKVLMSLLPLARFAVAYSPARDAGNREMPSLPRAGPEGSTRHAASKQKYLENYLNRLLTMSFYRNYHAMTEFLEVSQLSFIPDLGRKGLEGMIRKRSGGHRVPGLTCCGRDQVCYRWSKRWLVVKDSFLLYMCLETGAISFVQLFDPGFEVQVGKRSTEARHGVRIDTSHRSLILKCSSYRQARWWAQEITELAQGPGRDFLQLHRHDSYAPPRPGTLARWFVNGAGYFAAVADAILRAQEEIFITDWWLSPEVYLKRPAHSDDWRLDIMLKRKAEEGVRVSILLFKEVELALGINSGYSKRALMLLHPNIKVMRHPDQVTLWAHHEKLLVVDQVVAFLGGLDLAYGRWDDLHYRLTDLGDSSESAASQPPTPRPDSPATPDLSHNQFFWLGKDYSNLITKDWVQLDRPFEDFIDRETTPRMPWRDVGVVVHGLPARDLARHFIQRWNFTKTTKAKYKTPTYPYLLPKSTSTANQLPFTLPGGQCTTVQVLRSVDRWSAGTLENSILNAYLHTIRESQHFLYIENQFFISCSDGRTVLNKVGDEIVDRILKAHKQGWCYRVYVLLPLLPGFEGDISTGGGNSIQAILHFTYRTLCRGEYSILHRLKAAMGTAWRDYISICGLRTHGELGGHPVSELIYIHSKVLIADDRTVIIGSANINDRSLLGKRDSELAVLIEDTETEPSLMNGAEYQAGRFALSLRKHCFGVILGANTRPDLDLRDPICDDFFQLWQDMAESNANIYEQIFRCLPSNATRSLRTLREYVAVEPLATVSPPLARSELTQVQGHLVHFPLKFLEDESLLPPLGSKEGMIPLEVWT
# Glyceraldehyde-3-phosphate dehydrogenase, sequence (P04406 whole entry): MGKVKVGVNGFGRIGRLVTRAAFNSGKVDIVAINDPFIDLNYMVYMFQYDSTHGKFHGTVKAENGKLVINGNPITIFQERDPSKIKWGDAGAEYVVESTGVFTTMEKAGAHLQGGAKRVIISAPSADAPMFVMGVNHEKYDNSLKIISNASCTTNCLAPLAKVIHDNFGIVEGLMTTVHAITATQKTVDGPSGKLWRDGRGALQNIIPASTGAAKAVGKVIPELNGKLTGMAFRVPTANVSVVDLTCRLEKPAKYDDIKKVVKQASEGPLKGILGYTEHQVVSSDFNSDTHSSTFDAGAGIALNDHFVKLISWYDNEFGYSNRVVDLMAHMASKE
compound,measurement,setting,value
CCOc1cc(C)c(Cl)cc1S(=O)(=O)NCc1ccco1,CC50,[1],27.7 µM (active)
Cc1cccc(N2C(=O)C(Cl)=C(N3CCN(C)CC3)C2=O)c1,IC50,Bcl-2-related protein A1 [2],12.6 µM (active)
same,IC50,[3],> 100 µM (not active)
same,IC50,Bcl-2-related protein A1 [4],10.8 µM (active)
CCOc1ccc(-c2csc(Nc3ccc(C#N)cc3)n2)cc1,IC50,[5],> 50 µM (not active)
same,IC50,[6],> 50 µM (not active)
O=C(NCCN1CCC2(CC1)C(=O)NCN2Cc1ccccc1Cl)c1ccc2ccccc2c1,IC50,Phospholipase D2,0.11 µM (active)
same,IC50,Phospholipase D1,2.3 µM (active)
Cc1c(NC(=O)CCN2C(=O)c3ccccc3C2=O)c(=O)n(-c2ccccc2)n1C,EC50,[7],> 112 µM (not active)
same,IC50,Ephrin type-A receptor 4,> 100 µM (not active)
same,EC50,[8],> 112 µM (not active)
O=C(Nc1cccnc1)Nc1cc(Cl)cc(Cl)c1,EC50,Streptococcus,85.4 µM (active)
same,EC50,Streptokinase A,> 150 µM (not active)
same,EC50,[9],7.83 µM (active)
same,EC50,[10],> 1.13 µM (active)
CN1c2ccc(Br)cc2Sc2cc(C(=O)c3ccccc3)ccc21,IC50,NADPH oxidase 1,> 20 µM (not active)
Cc1ccc(C2=NN=C(c3ccncc3)c3ccc4ccccc4c3N2)cc1,IC50,[11],3.52 µM (active)
CCc1nnc(NC(=O)CSc2nc(-c3ccccc3)cc(-c3ccc(OC)cc3)c2C#N)s1,EC50,[12],1.31 µM (active)
CC(C)Oc1cccc(OCCn2cnc3ccccc32)c1,AC50,cells,> 52 µM (inactive)
O=c1c2cc(I)ccc2nc2n1CCC2,CC50,Vero,> 100 µM (active)
COC(=O)c1ccc(-n2c(C)cc(C(=O)CSCc3ccc(OC)cc3)c2C)cc1,EC50,[13],1 µM (active)
CN1CC=C2C(C#N)=C(N)C(C#N)(C#N)[C@H](c3cccc(Cl)c3)C2C1 (some centres not stated),IC50,Bcl-2-related protein A1 [4],> 100 µM (not active)
same,EC50,[14],11.6 µM (active)
same,EC50,[15],12.5 µM (active)
same,IC50,Bcl-2-related protein A1 [16],> 100 µM (not active)
Cc1cnc(NC(=O)CCCc2nc3ccccc3s2)s1,IC50,[17],0.563 µM (active)
same,EC50,[18],> 91.2 µM (inactive)
same,AC50,Cytochrome P450 2C9,5.62 µM (inconclusive)
same,EC50,[19],> 91.2 µM (inactive)
same,IC50,[20],> 67.5 µM (inactive)
same,EC50,Transthyretin,> 167 µM (inactive)
COC(=O)C1=C(C)N(Cc2cccc(C(F)(F)F)c2)C(NCc2ccc(OC)cc2)=NC1c1ccc(F)cc1 (configuration not stated),IC50,[21],> 96.6 µM (inactive)
